Test system: SH-SY5Y cells
Test: TMRM assay of mitochondrial membrane potential
Format: cell-based, human
Method: FIG. 1. The structure of AUTAC-4 is shown in (A). (B) Representative images of SH-SY5Y cells stably expressing the mito-mKeima reporter treated with AUTAC4 for 18 h. Nuclei were stained with Hoechst 33342, healthy mitochondria are shown in green and mitochondria in lysosomes are shown in red. (C-E) Fold change in mitophagy index over time after treatment with increasing concentrations of AUTAC4 under treatment with DMSO (C), 3 mM CCCP (D) or 0.1/0.1 mM antimycin/oligomycin (E), also for 18 h. (F) Quantification of changes in mitochondrial membrane potential over time (DYm) by measuring the TMRM relative fluorescence intensity (RFI) treated with DMSO, 10 mM CCCP, 10 mM and 20 mM AUTAC4. Normalised to number of nuclei. (G) Representative western blot of SH-SY5Y cells treated with DMSO, 10 mM AUTAC4 or 10 mM AUTAC4+0.1/0.1 mM antimycin/oligomycin for 18 h and, probed for p62, b-actin and Tom20. Quantifications of western blot for changes in Tom20 and p62 levels shown in (H) and (I), respectively. (J) Representative images of PANC-1 cells stably expressing the mCherry-EGFP-LC3 tandem reporter. Nuclei stained with Hoechst 33342, autophagosomes are shown in the EGFP channel and autolysosomes in the mCherry channel. Fold change in the number of autophagosome (K) and autolysosome (L) puncta in AUTAC4 treated cells. […] For mito-mKeima experiments, statistics were calculated by Two-way ANOVA with Tukey's multiple comparisons test. For western blots, TMRM and LC3 tandem reporter assay, statistics were calculated with one-way ANOVA with Tukey's multiple comparisons test.
FIG. 5. […] (B) Quantification of the colocalised ULK1 to TOM20 spot area of PANC-1 cells treated with DMSO, 5 mM CCCP, 10 mM BL-918, 10 mM BL-918+5 mM CCCP, […] NZ-65, […] NZ-65+5 mM CCCP, […] NZ-66, […] NZ-66+5 mM CCCP, 50 mM TSPO ligand, […] NZ-65+50 mM TSPO ligand, […] NZ-66+50 mM TSPO ligand. (C) Western blot of SH-SY5Y cells treated with 1 mM ULKTACs, 5 mM CCCP or both, probed for Mfn2, b-Actin and Tom20—quantifications are shown in (D) for Mfn2, normalised to Actin. […]

O=C(Nc1ccc(F)cc1F)[C@H](NC(=S)Nc1cc(C(F)(F)F)cc(C(F)(F)F)c1)c1ccccc1 [BL-918, reference compound]
mitochondrial membrane potential (TMRM): depolarisation of the outer mitochondrial membrane at higher concentrations

O=C(Nc1cc(C(F)(F)F)cc(C(F)(F)F)c1)N[C@@H](C(=O)Nc1ccc(F)cc1F)c1ccc(OCc2cn(CCOCCOCCNC(=O)C(=O)c3c(-c4ccccc4)[nH]c4ccccc34)nn2)cc1 [NZ-65, (R)-2-(3-(3,5-bis(trifluoromethyl)phenyl)ureido)-N-(2,4-difluorophenyl)-2-(4-((1-(2-(2-(2-(2-oxo-2-(2-phenyl-1H-indol-3-yl)acetamido)ethoxy)ethoxy)ethyl)-1H-1,2,3-triazol-4-yl)methoxy)phenyl) acetamide]
mitochondrial membrane potential (TMRM): neither NZ-65 nor NZ-66 showed any effect

O=C(Nc1cc(C(F)(F)F)cc(C(F)(F)F)c1)N[C@@H](C(=O)Nc1ccc(F)cc1F)c1ccc(OCc2cn(CCCCCCNC(=O)C(=O)c3c(-c4ccccc4)[nH]c4ccccc34)nn2)cc1 [NZ-66, (R)-2-(3-(3,5-bis(trifluoromethyl)phenyl)ureido)-N-(2,4-difluorophenyl)-2-(4-((1-(6-(2-oxo-2-(2-phenyl-1H-indol-3-yl)acetamido)hexyl)-1H-1,2,3-triazol-4-yl)methoxy)phenyl) acetamide]
mitochondrial membrane potential (TMRM): neither NZ-65 nor NZ-66 showed any effect

Reference: patent publication US20260335323A1, “CHIMERIC MOLECULE” (UCL Business Ltd, priority 2023, published 2026)
